Assay results published in patent US11311540B2, “Increasing expression of interferon regulated genes with combinations of histone deacetylase inhibitors and immunomodulatory drugs” (ACETYLON PHARMACEUTICALS, INC., priority 2016, dated 2022).

Assays:
myc target genes = assay: Gene Set Enrichment Analysis (GSEA) of microarray data; format: cell-based, human; settings: single agent vs. DMSO at 48 hours (pomalidomide 1 μM; Compound A 4 μM)
Protocol: (§1) The data acquired from Example 7 was analyzed using two approaches: (1) Gene Set Enrichment Analysis (GSEA), and in the (2) Library of Integrated Network-based Cellular Signatures (LINCS) database.
(§2) The goal of the GSEA was to identify gene sets that are enriched in combination treatment over single agent treatment. […] Relevant gene sets were those that were enriched in both queries in the same direction (increased or decreased). For this analysis, the “hallmark gene sets” was chosen as the database, which comprises coherently expressed signatures derived by aggregating many molecular signatures database (MSigDB) gene sets to represent well-defined biological states or processes.

[1] = tested on: interferon regulated genes; assay: as above; format: cell-based, human; settings: single agent vs. DMSO at 48 hours (pomalidomide 1 μM; Compound A 4 μM)
Protocol: as §1, §2

H929 cells = assay: Apoptosis by flow cytometry (Annexin V / propidium iodide); format: cell-based; settings: 5 and 7 days, Compound A 2 μM, lenalidomide 2 μM, pomalidomide 1 μM
Protocol: Flow cytometry analysis was then used to measure the number of healthy and apoptotic cells under each treatment condition.
(§3) H929 (FIGS. 7A & 7B) or MM.1s (FIGS. 7C & 7D) myeloma cells were exposed to drug for 5 (FIGS. 7A & 7C) and 7 (FIGS. 7B & 7D) days, and apoptosis was assessed by flow cytometry by measuring Annexin V binding and cellular permeability to propidium iodide. The relative fraction of cells that were live, in early apoptosis, in late apoptosis, or dead was then determined.

XAF1 = XAF1 gene expression (microarray probes); format: cell-based, human; settings: Compound A 2, 3, 4 μM, pomalidomide 1 μM; 24 hour and 48 hour
From the text: (§4) The chip comprises a human gene expression array having more than 530,000 probes covering more than 36,000 transcripts and variants, which represent more than 20,000 genes mapped through RefSeq or via UniGene annotation. […] In the table, “A” indicates Compound A, and “Pom” indicates pomalidomide.
(§5) Each bar in each group of bars per treatment represents individual transcript probes for measuring gene expression level. […] Finally, there also appeared to be independent time components for each transcript.

preclinical models of MM = settings: in vitro and in vivo; cited from earlier work
CCL4 = CCL4 gene expression (microarray probes); format: cell-based, human; settings: Compound A 2, 3, 4 μM, pomalidomide 1 μM; 24 hour and 48 hour
From the text: as §4, §5

MM.1s myeloma cells [2] = assay: Cell cycle distribution by flow cytometry (propidium iodide); format: cell-based; settings: 3 and 5 days, Compound A 2 μM, lenalidomide 2 μM, pomalidomide 1 μM
Protocol: (§6) H929 (FIGS. 6A & 6B) or MM.1s (FIGS. 6C & 6D) myeloma cells were exposed to drug for 3 (FIGS. 6A & 6C) and 5 (FIGS. 6B & 6D) days and cell cycle distribution was assessed by flow cytometry via incorporation of propidium iodide. The relative fraction of cells in each stage of the cell cycle (G0/G1, S, and G2/M) as well as the fraction of dead cells (Sub G1) was then estimated.

H929 myeloma cells = assay: as above; format: cell-based; settings: 3 and 5 days, Compound A 2 μM, lenalidomide 2 μM, pomalidomide 1 μM
Protocol: as §6

BIRC5 = BIRC5 (survivin) gene expression (microarray probes); format: cell-based, human; settings: Compound A 2, 3, 4 μM, pomalidomide 1 μM; 24 and 48 hours
Protocol: as §4
(§7) Finally, both effects were enhanced with time, though dose-dependence was less clear at 48 hours.

CASP1 = CASP1 gene expression (microarray probes); format: cell-based, human; settings: Compound A 2, 3, 4 μM, pomalidomide 1 μM; 24 and 48 hours
Protocol: as §4, §7

MM.1s myeloma cells [3] = assay: Apoptosis by flow cytometry (Annexin V / propidium iodide); format: cell-based; settings: 5 and 7 days, Compound A 2 μM, lenalidomide 2 μM, pomalidomide 1 μM
Protocol: as §3

[4] = Phase I trials; cited from earlier work
α-tubulin = assay: Acetylation of α-tubulin in H929 cells (immunoblot); format: cell-based
[5] = Body weight and tolerability in CB17-SCID mice; format: in vivo
Protocol: Mice carrying H929 tumor xenografts were treated with DMSO, Compound B (50 mg/kg IP QD), pomalidomide (1 mg/kg IP QD), or the combination of Compound B (50 mg/kg IP QD) and pomalidomide (1 mg/kg IP QD) daily for up to 42 days.

HDAC6 = target: T1, HDAC6 (Homo sapiens, UniProt Q9UBN7); assay: HDAC6 selectivity over other HDACs; format: biochemical
T1 sequence (Q9UBN7 1-1215): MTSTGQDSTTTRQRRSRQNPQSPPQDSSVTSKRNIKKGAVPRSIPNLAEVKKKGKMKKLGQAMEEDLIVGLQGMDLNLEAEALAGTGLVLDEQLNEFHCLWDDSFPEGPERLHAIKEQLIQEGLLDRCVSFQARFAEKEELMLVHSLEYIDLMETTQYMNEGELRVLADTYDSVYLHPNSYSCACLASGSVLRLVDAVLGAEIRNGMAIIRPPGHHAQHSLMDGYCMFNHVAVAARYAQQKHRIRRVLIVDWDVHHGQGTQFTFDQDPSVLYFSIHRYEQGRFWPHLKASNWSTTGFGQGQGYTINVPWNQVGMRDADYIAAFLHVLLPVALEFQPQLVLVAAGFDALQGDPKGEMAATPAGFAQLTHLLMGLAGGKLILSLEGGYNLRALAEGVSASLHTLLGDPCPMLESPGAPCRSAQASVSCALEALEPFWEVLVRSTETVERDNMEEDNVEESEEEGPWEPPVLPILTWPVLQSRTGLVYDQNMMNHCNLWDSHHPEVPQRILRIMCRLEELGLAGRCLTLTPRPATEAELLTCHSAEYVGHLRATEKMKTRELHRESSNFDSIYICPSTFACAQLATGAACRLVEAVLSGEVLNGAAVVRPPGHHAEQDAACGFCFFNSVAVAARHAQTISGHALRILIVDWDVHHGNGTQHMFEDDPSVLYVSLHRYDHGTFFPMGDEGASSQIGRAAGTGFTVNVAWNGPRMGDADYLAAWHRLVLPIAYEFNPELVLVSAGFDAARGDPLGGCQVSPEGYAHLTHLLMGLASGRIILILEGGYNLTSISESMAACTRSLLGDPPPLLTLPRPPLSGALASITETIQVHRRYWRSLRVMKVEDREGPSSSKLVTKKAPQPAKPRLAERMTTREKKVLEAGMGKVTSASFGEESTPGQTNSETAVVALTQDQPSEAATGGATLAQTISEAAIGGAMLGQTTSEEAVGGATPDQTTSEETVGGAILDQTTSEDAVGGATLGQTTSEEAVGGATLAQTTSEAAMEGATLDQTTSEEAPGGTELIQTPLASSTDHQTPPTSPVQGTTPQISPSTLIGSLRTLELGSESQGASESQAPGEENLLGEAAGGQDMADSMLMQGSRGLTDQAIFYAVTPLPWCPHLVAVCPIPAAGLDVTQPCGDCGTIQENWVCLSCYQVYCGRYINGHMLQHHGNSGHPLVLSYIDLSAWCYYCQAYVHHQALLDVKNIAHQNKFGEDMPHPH
From the text: The synthesis of the compounds of Formula I is provided in PCT/US2011/021982, which is incorporated herein by reference in its entirety. The synthesis of compounds of Formula II is provided in PCT/US2011/060791, which is incorporated herein by reference in its entirety. The synthesis of the compounds of Formula III is provided in U.S. Pat. Nos. 5,635,517; 6,281,230; 6,335,349; and 6,476,052; and in International Patent Application No. PCT/US97/013375, each of which is incorporated herein by reference in its entirety.

H929 = assay: Expression profiling with Affymetrix […] microarrays, number of differentially regulated genes; format: cell-based, human; settings: pomalidomide 1 μM
From the text: as §4

| SMILES | Normalized Enrichment Score (NES), myc targets (myc target genes) | Normalized Enrichment Score (NES), interferon regulated genes [1] | XAF1 expression (XAF1) | CCL4 expression (CCL4) | BIRC5 expression (BIRC5) | CASP1 expression (CASP1) | tolerability, body weight [5] | further results |
| --- | --- | --- | --- | --- | --- | --- | --- | --- |
| O=C(CCCCCCNC(=O)c1cnc(N(c2ccccc2)c2ccccc2)nc1)NO [Compound A, 2-(diphenylamino)-N-(7-(hydroxyamino)-7-oxoheptyl)pyrimidine-5-carboxamide] | −2.23 | 2.72 | consistent dose-dependent induction | consistent dose-dependent induction | consistent dose-dependent effect | consistent dose-dependent effect |  | apoptosis (H929 cells): small increase in apoptosis; synergy with bortezomib (preclinical models of MM): synergizes in vitro and in vivo with bortezomib; cell cycle distribution (MM.1s myeloma cells [2]): small reduction of cells undergoing division in S phase; cell cycle distribution (H929 myeloma cells): small reduction of cells undergoing division in S phase; apoptosis (MM.1s myeloma cells [3]): small increase in apoptosis; safety and tolerability profile [4]: improved safety and tolerability profile; inhibition of HDAC6: acetylation of α-tubulin (α-tubulin): hyperacetylation of α-tubulin |
| O=C(CCCCCCNC(=O)c1cnc(N(c2ccccc2)c2ccccc2Cl)nc1)NO [Compound B, 2-((2-chlorophenyl)(phenyl)amino)-N-(7-(hydroxyamino)-7-oxoheptyl)pyrimidine-5-carboxamide] |  |  |  |  |  |  | very well tolerated with no weight loss and no evidence of overt toxicity |  |
| O=C(NO)c1cnc(NC2(c3cccc(F)c3)CCCCC2)nc1 [Compound C, 2-((1-(3-fluorophenyl)cyclohexyl)amino)-N-hydroxypyrimidine-5-carboxamide] |  |  |  |  |  |  |  | selective for HDAC6 over class I HDACs (HDAC6): more than 300 fold |
| Nc1cccc2c1C(=O)N(C1CCC(=O)NC1=O)C2=O (stereo not shown) [pomalidomide, reference compound] | −1.97 | 2.87 | small induction | small induction | relatively small change | relatively small change | very well tolerated with no weight loss and no evidence of overt toxicity | number of genes with fold expression changes greater than 2 relative to vehicle: Down (H929; 24 h): 531; number of genes with fold expression changes greater than 2 relative to vehicle: Total (H929; 24 h): 979; number of genes with fold expression changes greater than 2 relative to vehicle: Up (H929; 24 h): 448; number of genes with fold expression changes greater than 2 relative to vehicle: Down (H929; 48 h): 865; number of genes with fold expression changes greater than 2 relative to vehicle: Total (H929; 48 h): 1905; number of genes with fold expression changes greater than 2 relative to vehicle: Up (H929; 48 h): 1040 |
